Earlier results in patent publication US20070088012A1, “Method of treating or preventing type-2 diabetes” (priority 2005, published 2007).

## C[C@]12CC[C@H]3[C@@H](CCC4=CC(=O)CC[C@@]43C)[C@@H]1CC[C@@H]2O [Testosterone, testosterone]
Circulating testosterone
  bound to protein in the blood: 98%
In men
  share bound weakly to albumin: 60%
  share of the binding to sex hormone binding globulin (SHBG): approximately 40%
men
  Metabolic Clearance Rate of Daily Testosterone: ^aMetabolic Clearance Rate of Daily Testosterone = 600 L/day
Reported in the literature
  half-life of testosterone: 10 to 100 min
